From ChEMBL document CHEMBL5046278, “Synthesis and Evaluation of Novel Tetrahydronaphthyridine CXCR4 Antagonists with Improved Drug-like Profiles” (J Med Chem, 2022) come the findings set out here.

For one data set, the target named is Cytochrome P450 2D6 (Homo sapiens, UniProt P10635). Description: Inhibition of recombinant human CYP2D6 using AMMC as substrate preincubated for 30 mins followed by substrate addition measured after 45 mins by fluorescence based assay. It is filed as ADME.
Data set [1] is described as follows: Antagonist activity at human CXCR4 receptor expressed in CCRF-CEM cells assessed as inhibition of CXCL12-induced calcium release by calcium flux assay. Format: cell-based. On the technique in general: Calcium assays in cells follow changes in intracellular calcium, usually with a dye or a luminescent sensor.
The target of data set [2] is T1, Muscarinic acetylcholine receptor M2 (Homo sapiens, UniProt P08172).
T1 sequence (P08172 whole entry): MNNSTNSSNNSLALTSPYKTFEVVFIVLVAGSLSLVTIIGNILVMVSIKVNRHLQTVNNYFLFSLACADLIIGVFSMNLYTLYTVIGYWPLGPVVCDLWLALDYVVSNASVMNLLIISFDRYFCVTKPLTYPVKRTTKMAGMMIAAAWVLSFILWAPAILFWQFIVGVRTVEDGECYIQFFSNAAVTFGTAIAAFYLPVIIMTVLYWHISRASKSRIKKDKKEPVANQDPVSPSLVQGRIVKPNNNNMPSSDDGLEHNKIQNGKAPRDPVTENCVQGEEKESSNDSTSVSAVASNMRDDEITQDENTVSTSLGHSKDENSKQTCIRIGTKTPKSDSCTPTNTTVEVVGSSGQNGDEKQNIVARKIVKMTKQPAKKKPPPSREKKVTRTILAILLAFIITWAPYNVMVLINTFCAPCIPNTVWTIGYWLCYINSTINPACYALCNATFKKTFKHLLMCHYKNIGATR
Description: Inhibition of M2 mAChR receptor (unknown origin).

The target in a further data set is Mu-type opioid receptor (Homo sapiens, UniProt P35372). Description: Inhibition of mu opioid receptor (unknown origin).
A short description of data set [3]: Permeability of compound at pH 7.4 incubated for 4 hrs by PAMPA assay. Format: ADME. The conditions noted are these: read-out: permeability. (PAMPA measures passive passage across an artificial lipid membrane.)
For the next data set, the target named is D(2) dopamine receptor (Homo sapiens, UniProt P14416). Description: Inhibition of dopamine D2 receptor (unknown origin).
A short description of data set [4]: Permeability of compound at pH 5.5 incubated for 4 hrs by PAMPA assay. Format: ADME. The note with it: read-out: permeability.
In data set [5] the target is Voltage-gated inwardly rectifying potassium channel KCNH2 (Homo sapiens, UniProt Q12809). Description: Inhibition of human ERG by [3H]]Astemizole binding assay. Format: toxicity.
Data set [6] can be described thus: Metabolic stability in rat liver microsomes assessed compound remaining measured after 10 mins in presence of NADPH. Format: ADME, Microsome. The note with it: read-out: Stability. Background: Liver microsomes are vesicles of endoplasmic reticulum, rich in cytochrome P450 enzymes.
Data set [7] concerns the target T2, Alpha-2A adrenergic receptor (Homo sapiens, UniProt P08913).
T2 sequence (P08913 whole entry): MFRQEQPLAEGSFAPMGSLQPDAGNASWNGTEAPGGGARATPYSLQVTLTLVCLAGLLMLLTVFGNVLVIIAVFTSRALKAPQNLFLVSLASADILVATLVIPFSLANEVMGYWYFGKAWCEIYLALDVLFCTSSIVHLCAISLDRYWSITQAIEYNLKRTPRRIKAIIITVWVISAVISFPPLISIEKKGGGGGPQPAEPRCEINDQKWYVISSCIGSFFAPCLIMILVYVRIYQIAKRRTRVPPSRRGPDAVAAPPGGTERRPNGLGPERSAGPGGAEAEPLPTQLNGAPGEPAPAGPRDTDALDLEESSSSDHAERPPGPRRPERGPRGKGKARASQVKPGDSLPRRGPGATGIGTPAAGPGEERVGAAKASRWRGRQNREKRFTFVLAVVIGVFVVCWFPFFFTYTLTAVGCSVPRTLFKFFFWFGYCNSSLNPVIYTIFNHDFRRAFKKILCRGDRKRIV
Description: Inhibition of alpha 2A adrenergic receptor (unknown origin).

Data set [8] is described as follows: Metabolic stability in mouse liver microsomes assessed compound remaining measured after 10 mins in presence of NADPH. Format: ADME, Microsome. The note with it: read-out: Stability.
In data set [9] the target is Kappa-type opioid receptor (Homo sapiens, UniProt P41145). Description: Inhibition of kappa opioid receptor (unknown origin).
Data set [10] deals with T3, Alpha-2C adrenergic receptor (Homo sapiens, UniProt P18825).
T3 sequence (P18825 whole entry): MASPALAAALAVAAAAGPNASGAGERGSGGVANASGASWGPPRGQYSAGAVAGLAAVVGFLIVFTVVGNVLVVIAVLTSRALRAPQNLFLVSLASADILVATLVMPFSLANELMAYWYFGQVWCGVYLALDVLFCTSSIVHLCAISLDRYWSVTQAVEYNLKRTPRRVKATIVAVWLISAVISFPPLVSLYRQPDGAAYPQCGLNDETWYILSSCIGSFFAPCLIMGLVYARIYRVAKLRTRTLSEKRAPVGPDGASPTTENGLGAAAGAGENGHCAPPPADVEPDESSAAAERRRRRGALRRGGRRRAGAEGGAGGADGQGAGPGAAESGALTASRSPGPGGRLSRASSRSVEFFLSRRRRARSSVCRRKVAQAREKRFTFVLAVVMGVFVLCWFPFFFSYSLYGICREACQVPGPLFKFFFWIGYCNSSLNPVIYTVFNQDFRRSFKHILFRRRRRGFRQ
Description: Inhibition of alpha 2C adrenergic receptor (unknown origin).

A short description of data set [11]: Metabolic stability in human liver microsomes assessed compound remaining measured after 10 mins in presence of NADPH. The conditions noted are these: read-out: Stability. It is filed as ADME, Microsome.
Data set [12] can be described thus: Cytotoxicity against human TZM-bl cells assessed as reduction in cell viability incubated for 4 hrs by […] assay. Format: toxicity, cell-based. The conditions noted are these: read-out: TC50.
In data set [13] the test system is Human immunodeficiency virus 1. Description: Antiviral activity against HIV-1 NL4-3(X4) pseudovirus infected in human TZM-bl cells assessed as reduction in viral infectivity measured after 48 hrs of postinfection by luminescence assay. It is filed as functional, organism-based. The conditions noted are these: Human immunodeficiency virus 1, NL4-3(X4).
Data set [14] in a line: Antagonist activity at mAChR (unknown origin) expressed in CCRF-CEM cells assessed as inhibition of calcium release by calcium flux assay. It is filed as cell-based. The note with it: Homo sapiens.
Data set [15] has as its system Human immunodeficiency virus 1. Description: Antiviral activity against HIV-1 Z1800M E4.02 (R5) pseudovirus infected in human TZM-blcells assessed as reduction in viral infectivity measured after 48 hrs of postinfection by luminescence assay. Format: functional, organism-based. The conditions noted are these: Human immunodeficiency virus 1, Z1800M E4.02 (R5), TZM-bl.

The target in data set [16] is Neuronal acetylcholine receptor subunit alpha-7 (Homo sapiens, UniProt P36544). Description: Inhibition of alpha7 nicotinic acetylcholine receptor (unknown origin).

A word on the IC50: it is the concentration that inhibits the measured activity by half.

Chain of Cytochrome P450 2D6 (P10635 whole entry): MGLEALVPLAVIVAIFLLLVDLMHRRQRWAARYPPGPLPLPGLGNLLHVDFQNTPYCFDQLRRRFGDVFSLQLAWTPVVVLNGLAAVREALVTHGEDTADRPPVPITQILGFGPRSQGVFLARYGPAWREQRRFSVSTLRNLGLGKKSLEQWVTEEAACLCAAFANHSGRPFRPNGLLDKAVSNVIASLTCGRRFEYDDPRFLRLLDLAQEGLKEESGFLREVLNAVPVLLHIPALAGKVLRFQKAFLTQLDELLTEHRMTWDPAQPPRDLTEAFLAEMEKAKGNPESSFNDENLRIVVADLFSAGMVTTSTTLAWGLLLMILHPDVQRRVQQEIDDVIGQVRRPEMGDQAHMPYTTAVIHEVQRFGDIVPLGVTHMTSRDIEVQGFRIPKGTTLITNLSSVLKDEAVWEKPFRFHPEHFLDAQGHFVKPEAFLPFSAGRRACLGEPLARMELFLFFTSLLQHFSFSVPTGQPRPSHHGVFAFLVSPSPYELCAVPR
Chain of Kappa-type opioid receptor (P41145 whole entry): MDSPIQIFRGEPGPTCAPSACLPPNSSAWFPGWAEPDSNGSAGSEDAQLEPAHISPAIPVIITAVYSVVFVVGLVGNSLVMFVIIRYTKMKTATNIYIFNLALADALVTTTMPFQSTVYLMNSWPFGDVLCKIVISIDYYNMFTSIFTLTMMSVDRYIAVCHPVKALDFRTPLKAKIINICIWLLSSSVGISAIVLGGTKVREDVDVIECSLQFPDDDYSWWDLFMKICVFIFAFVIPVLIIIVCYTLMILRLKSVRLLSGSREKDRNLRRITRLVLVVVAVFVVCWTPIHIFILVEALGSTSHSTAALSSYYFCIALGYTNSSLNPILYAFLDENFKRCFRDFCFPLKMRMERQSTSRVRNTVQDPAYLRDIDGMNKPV
Chain of Neuronal acetylcholine receptor subunit alpha-7 (P36544 whole entry): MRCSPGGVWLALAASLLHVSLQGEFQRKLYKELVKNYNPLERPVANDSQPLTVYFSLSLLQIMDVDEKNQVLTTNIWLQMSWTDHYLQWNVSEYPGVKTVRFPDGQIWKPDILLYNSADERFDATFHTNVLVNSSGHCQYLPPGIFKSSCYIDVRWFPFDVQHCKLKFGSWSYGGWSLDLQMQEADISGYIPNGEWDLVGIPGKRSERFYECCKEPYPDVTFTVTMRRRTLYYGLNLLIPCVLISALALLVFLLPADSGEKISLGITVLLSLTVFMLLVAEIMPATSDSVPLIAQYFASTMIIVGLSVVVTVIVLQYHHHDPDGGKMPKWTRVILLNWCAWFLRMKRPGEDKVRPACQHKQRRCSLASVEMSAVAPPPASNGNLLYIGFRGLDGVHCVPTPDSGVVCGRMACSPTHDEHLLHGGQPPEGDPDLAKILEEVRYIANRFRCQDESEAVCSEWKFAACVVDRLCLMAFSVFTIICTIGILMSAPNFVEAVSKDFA
Chain of D(2) dopamine receptor (P14416 whole entry): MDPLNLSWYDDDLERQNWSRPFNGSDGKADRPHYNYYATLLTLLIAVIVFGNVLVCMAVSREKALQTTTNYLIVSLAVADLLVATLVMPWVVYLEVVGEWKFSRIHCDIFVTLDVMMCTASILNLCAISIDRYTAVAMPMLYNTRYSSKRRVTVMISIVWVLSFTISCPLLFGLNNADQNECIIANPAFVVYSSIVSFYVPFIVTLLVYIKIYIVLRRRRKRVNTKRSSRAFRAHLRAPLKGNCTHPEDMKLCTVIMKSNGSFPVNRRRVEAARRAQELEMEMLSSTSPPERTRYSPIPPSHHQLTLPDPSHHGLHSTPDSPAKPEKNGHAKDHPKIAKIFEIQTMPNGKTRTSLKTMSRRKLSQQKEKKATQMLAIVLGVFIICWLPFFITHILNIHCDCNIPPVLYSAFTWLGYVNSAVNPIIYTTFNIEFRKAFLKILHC
Chain of Mu-type opioid receptor (P35372 whole entry): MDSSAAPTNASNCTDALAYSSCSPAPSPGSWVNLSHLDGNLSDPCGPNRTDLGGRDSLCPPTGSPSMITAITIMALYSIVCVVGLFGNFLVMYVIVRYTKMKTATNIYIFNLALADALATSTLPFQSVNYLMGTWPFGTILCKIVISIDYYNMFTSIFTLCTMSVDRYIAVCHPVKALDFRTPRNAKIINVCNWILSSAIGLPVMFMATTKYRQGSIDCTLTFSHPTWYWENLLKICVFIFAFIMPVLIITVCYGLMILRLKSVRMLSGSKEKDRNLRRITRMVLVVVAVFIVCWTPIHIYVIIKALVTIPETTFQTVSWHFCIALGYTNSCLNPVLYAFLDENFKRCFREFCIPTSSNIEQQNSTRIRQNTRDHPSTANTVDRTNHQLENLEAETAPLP
Chain of Voltage-gated inwardly rectifying potassium channel KCNH2 (Q12809 whole entry): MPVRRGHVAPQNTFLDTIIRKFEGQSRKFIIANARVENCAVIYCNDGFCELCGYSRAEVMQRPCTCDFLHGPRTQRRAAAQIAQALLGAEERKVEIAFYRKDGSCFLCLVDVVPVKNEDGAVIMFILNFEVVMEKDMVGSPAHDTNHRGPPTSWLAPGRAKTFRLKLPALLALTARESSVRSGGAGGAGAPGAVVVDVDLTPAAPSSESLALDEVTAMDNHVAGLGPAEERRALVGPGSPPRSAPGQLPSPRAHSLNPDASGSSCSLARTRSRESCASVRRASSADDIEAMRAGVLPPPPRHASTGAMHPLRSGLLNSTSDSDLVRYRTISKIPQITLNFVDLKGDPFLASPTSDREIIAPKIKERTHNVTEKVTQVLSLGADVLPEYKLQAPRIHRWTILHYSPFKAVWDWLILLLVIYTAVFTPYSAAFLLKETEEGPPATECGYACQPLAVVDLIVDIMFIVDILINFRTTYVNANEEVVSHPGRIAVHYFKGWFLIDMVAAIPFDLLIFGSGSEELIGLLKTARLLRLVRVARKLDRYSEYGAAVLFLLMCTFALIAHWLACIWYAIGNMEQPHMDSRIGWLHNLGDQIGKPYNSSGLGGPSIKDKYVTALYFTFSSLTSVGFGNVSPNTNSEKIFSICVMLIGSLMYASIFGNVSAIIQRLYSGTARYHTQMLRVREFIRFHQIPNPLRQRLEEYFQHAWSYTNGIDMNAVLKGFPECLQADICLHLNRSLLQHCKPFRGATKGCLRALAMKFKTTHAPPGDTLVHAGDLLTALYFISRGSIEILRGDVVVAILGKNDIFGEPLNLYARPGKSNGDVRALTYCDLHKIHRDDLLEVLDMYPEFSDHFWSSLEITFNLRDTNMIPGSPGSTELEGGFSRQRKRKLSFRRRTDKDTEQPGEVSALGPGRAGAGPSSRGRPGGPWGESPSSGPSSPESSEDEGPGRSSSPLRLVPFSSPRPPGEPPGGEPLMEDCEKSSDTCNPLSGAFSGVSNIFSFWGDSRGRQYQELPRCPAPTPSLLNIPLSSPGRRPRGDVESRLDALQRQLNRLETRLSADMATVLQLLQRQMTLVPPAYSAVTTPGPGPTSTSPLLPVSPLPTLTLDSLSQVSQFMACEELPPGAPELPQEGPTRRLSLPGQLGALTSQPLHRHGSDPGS

In the case of `NCCCCN(C[C@H]1Cc2cccnc2CN1)[C@H]1CCCc2cccnc21`, the IC50 was 4 µM at Cytochrome P450 2D6; 0.012 µM in data set [1]; 30 µM in data set [2]; above 30 µM against Mu-type opioid receptor; 10 µM against D(2) dopamine receptor; 5.4 µM in [5]. In addition, the IC50 in data set [7] is 1.3 µM; in data set [9], 4 µM; in data set [10], 30 µM. In addition, the Papp at 4 h in [3] is 0.6 ×10⁻⁶ cm/s; in data set [4], 0.2 ×10⁻⁶ cm/s. For the same compound, the results for the remaining at 10 min in [6], in data set [8] and in data set [11] were 49%, 69% and 96%, respectively.

Take `c1cnc2c(c1)CN[C@@H](CN(CCCCNC1COC1)[C@H]1CCCc3cccnc31)C2`: the IC50 on Cytochrome P450 2D6 was above 20 µM; in data set [1] it was 0.16 µM; in data set [2] it was above 17 µM; on Mu-type opioid receptor, 21 µM; in data set [13] it was 0.02 µM; against D(2) dopamine receptor it was above 30 µM. Further, the IC50 in data set [5] is 11 µM; in [14], above 33 µM; in data set [15] it was above 10 µM; in [16], above 30 µM; in data set [7], 24 µM; in data set [9], 10.1 µM. In [10], this compound gave an IC50 of 8.8 µM. Moreover, in data set [12], the CC50 at 4 h is above 10 µM. Moreover, the Papp at 4 h in data set [3] was 30 ×10⁻⁶ cm/s; in data set [4], 0.7 ×10⁻⁶ cm/s. Also, the remaining at 10 min in [6] is 27%; in data set [8], 41%; in [11], 97%.

Consider `CN(CCCCN(C[C@H]1Cc2ncccc2CN1)[C@H]1CCCc2cccnc21)C1CCOCC1`, for which the IC50 was above 20 µM on Cytochrome P450 2D6; 0.11 µM in data set [1]; above 30 µM in data set [2]; above 30 µM against Mu-type opioid receptor; 0.006 µM in data set [13]; above 30 µM against D(2) dopamine receptor. Moreover, the IC50 was above 50 µM in data set [5]; above 33 µM in [14]; above 10 µM in data set [15]; above 30 µM in data set [16]; 28 µM in data set [7]; 8.9 µM in data set [9]. The 50% inhibitory concentration (IC50) in [10] is 8.4 µM. In data set [12], the CC50 at 4 h is above 10 µM. In addition, the Papp at 4 h came out at 49 ×10⁻⁶ cm/s in data set [3] and 1.5 ×10⁻⁶ cm/s in [4]. The values for the remaining at 10 min in [6], in data set [8] and in data set [11] were 64%, 51% and 100%, respectively.

Take `c1cnc2c(c1)CN[C@@H](CN(CCCCNC1CCOCC1)[C@H]1CCCc3cccnc31)C2`: the IC50 on Cytochrome P450 2D6 is above 20 µM; in data set [1], 0.0072 µM; in data set [2] it was above 30 µM; at Mu-type opioid receptor, 20 µM; on D(2) dopamine receptor it was above 30 µM; in [5] it was above 50 µM. Also, the IC50 in [14] was above 17 µM; in data set [16] it was above 30 µM; in data set [7] it was above 30 µM; in data set [9], 4.3 µM; in data set [10], above 30 µM. For the same compound, the Papp at 4 h in [3] was found to be 0.8 ×10⁻⁶ cm/s; in [4], 0.2 ×10⁻⁶ cm/s. The remaining at 10 min was found to be 49% in [6], 35% in data set [8] and 97% in [11].

For `NCCCCN(C[C@H]1Cc2ncccc2CN1)[C@H]1CCCc2cccnc21`, the IC50 at Cytochrome P450 2D6 is 12 µM; in data set [1] it was 0.011 µM; in [2], 8.7 µM; at Mu-type opioid receptor, above 30 µM; on D(2) dopamine receptor it was 9.4 µM; in [5], 5.8 µM. Also, the IC50 in data set [16] was found to be 1.7 µM; in [7], 11 µM; in [9], 1.1 µM; in data set [10], 13 µM. The Papp at 4 h worked out at 1.4 ×10⁻⁶ cm/s in [3] and 1.7 ×10⁻⁶ cm/s in data set [4]. The values for the remaining at 10 min in [6], in [8] and in [11] were 64%, 86% and 100%, respectively.
